Data as given in BindingDB's records for doi:10.1038/46290 (University of Bristol, 1999).

Biological target: Glutamate receptor ionotropic, kainate 2 (Homo sapiens, UniProt Q13002)
Sequence (Q13002 whole entry): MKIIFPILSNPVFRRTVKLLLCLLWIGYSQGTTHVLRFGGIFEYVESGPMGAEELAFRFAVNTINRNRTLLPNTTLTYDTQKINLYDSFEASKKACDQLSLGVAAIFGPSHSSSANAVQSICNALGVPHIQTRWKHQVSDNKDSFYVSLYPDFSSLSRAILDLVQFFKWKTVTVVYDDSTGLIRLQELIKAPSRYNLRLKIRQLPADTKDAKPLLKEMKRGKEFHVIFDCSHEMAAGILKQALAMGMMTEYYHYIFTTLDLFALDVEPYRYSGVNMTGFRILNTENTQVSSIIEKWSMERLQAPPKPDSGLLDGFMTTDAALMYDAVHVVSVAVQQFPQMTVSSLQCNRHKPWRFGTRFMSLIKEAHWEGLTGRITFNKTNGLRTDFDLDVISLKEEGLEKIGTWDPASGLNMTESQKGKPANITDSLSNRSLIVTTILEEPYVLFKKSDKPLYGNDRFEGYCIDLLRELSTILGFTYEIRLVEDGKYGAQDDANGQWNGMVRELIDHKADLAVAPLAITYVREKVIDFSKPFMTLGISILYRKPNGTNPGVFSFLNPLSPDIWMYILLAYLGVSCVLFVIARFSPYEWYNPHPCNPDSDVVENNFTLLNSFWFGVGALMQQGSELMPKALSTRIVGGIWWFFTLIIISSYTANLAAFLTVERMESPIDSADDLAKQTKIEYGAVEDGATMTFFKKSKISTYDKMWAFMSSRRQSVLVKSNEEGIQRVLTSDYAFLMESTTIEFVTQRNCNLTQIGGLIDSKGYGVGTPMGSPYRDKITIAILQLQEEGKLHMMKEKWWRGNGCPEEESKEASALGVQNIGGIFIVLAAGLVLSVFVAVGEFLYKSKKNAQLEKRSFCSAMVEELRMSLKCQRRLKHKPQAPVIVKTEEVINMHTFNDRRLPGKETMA

- Ki: > 10 µM
Structure (SMILES): O=C(O)c1ccc(C[C@H]2CC[C@H]3CN[C@H](C(=O)O)C[C@H]3C2)cc1 [LY 382884]
